The values that follow come from a melting point compilation (Tetko et al.; mined from patent text by program, amines drawn as free bases though some values may be those of a salt).

For orientation: melting point means the temperature of the solid-liquid transition.

The compound `CC1(C)C=Cc2cc(C(=O)NCCCCc3ccccc3)ccc2O1` yielded a melting point of 65 to 70 °C.

In turn, `Nc1ncnc(OCc2ccccc2)c1[N+](=O)[O-]` came in with a melting point of 149 to 150 °C. With `COc1ccc(CN(CCN(C)CCCCCCNC(=O)NCCSCc2csc(NC(=N)N)n2)c2ccccn2)cc1`, the melting point stood at 60 °C. For the compound `CC(C)OC(=O)c1cc(-n2c(=O)[nH]c3c(c2=O)CSC3)c(F)cc1Cl`, the melting point was 180 to 183 °C. Then `CN1C(=O)C(Br)=C(c2cn(C)c3ccccc23)C1=O`, with 155 to 158 °C; and `O=C(c1ccc2[nH]ccc2c1)N1CCN(CCc2ccccc2)CC1`, with 105 to 108 °C; and `CS(=O)(=O)c1ccc(-c2c(-c3ccc(F)cc3)nc3sccn23)cc1`, with 184 to 185 °C. The result for `O=C(NCCO)c1ccc(C(=O)N2CCN(CCO)CC2)nc1` reads 126 to 128 °C; that for `OCCc1nccn1CCCCc1ccc(OCc2coc(/C=C/c3ccc(Br)cc3)n2)cc1`, 149 to 150 °C; that for `COCOc1ccccc1C=CC(=O)O`, 133 to 134 °C.

As to `CC(=O)N1CCC(Oc2c(F)c(F)c(F)c(F)c2F)CC1`, the melting point was in the range of 60 to 65 °C. Then `COC(=O)/C=C/c1cc(-c2ccc(S(C)(=O)=O)cc2)n(CC2CCCCC2)n1`, with 48 to 50 °C; and `CCN1c2ncccc2C(=O)N(C)c2cccnc21`, with 130 to 132 °C. As for `Cc1ccc(N)c(C)c1CO`, the melting point was determined as 85 °C. The result for `CC(C)Oc1ccc(-c2nc(O)c(C(=O)O)s2)cc1` reads 126 to 127 °C; that for `Cc1[nH]cnc1CC1CCc2[nH]c3c(F)cccc3c2C1=O` (stereo not given), 135 to 140 °C. In turn, `COC(=O)c1ccc(Cc2cc3cc(Cl)ccc3[nH]2)cc1` registered a melting point of 118 °C. `CC(=O)c1cc2c(c(C)c1O)OC(C)(C)CC2C` (stereo not given) returned a melting point of 96 to 97 °C.

For the compound `NC(=O)C1C(CSSCC2C(C(N)=O)N(Cc3ccccc3)C(=O)N2Cc2ccccc2)N(Cc2ccccc2)C(=O)N1Cc1ccccc1` (stereo not given), the melting point fell in the range of 208 to 211 °C. For `CC1(C)Cc2ccccc2C1c1cncnc1SCc1cccc(F)c1` (stereo not given), the melting point fell in the range of 60 to 62 °C. The compound `N[C@@H](C/C(=C\C1CC1)C(=O)O)C(=O)O` had a melting point of 204 °C. On to `O=C(OCC1CCCCO1)c1ccccc1Nc1ccnc2cc(Cl)ccc12` (stereo not given), for which the melting point is 93 to 94 °C. As to `O=C(c1cc2cc3[nH]c(=O)oc3cc2[nH]1)N1CCC(Cc2ccc(F)cc2)CC1`, the melting point fell in the range of 244 to 247 °C.

In turn, `Cc1c2c(nc3ccccc13)CCN(C(N)=S)CC2` showed a melting point of 218 °C. Regarding `CCNc1ccccc1Nc1c(C(=O)O)cnc2c1cnn2CC`, the melting point fell in the range of 224 to 226 °C. `CCOc1ccc([N+](=O)[O-])c(NN2CCOCC2)c1` showed a melting point of 152 °C. In the case of `O=C(O)COc1ccc2c(-c3ccccc3F)csc2c1Cl`, the melting point fell in the range of 163 to 164 °C. Consider `Clc1cc(Cl)c2cccc3c2c1N=C3NCCCn1ccnc1`, for which the melting point was in the range of 182 to 183 °C. The result for `O=[N+]([O-])c1ccc(-c2cc3c(Nc4ccc(Cl)cc4F)ncnc3o2)cc1` reads 174 to 177 °C; that for `CNC(=O)c1ccc(-c2ccc3nnn(Cc4ccc5ncccc5c4)c3n2)cc1Cl`, 227 to 230 °C.

`CCCCC=C1SC(=S)N(N=c2sc3ccccc3s2)C1=O`: the melting point fell in the range of 210 to 212 °C. The result for `O=C1c2ccccc2C(=O)N1CCOc1cccc2c1SCCC2` reads 166 °C; that for `NC(=S)c1sccc1N`, 98 to 99 °C; that for `COc1ccc2[nH]c3c(C)cnc(Cl)c3c2c1`, 243 to 245 °C.

`C[C@H]1[C@H](O)C2(CC2)C(=O)N1c1ccc(C#N)c(C(F)(F)F)c1`: the melting point was in the range of 109 to 110 °C.

`COc1ccc(OC)c(C=CC#N)c1` yielded a melting point of 70 to 71 °C. Compound `O=C(Nc1cc(Cl)cc(Cl)c1)c1cnc(Nc2ccccc2)nc1C(F)(F)F` returned a melting point of 228 to 229 °C.

`Nc1nc2ccc(CO)cc2o1` had a melting point of 148 to 150 °C. On to `CC1COC(c2ccccc2)(c2ccc(N)c([N+](=O)[O-])c2)O1` (stereo not given), for which the melting point came to 155 °C. `O=c1c2c(OCC3CS3)cc(OCC3CS3)cc2oc2ccc3ccccc3c12` (stereo not given): the melting point was in the range of 225 to 226 °C.

The compound `COC(=O)c1cccc(Cc2ccc3[nH]c(-c4ccc5c(c4)OCO5)nc3c2)c1` came in with a melting point of 122 to 124 °C. With `CC(COc1ccccc1)C1SC(=O)NC1=O` (stereo not given), the melting point lay in the range of 106 to 108 °C. Regarding `CC(C)Oc1ccc(CCN2CCC3(CC2)CNC(=O)CO3)cc1`, the melting point is 135 to 137 °C. In the case of `CCc1noc(-c2ncn(-c3cccnc3)c2COC)n1`, the melting point lay in the range of 70 to 72 °C.

As to `CC(C)C(C(=O)O)c1onc(-c2ccccc2)c1-c1ccc(S(N)(=O)=O)cc1` (stereo not given), the melting point was in the range of 148 to 149 °C. `COC(=O)c1cc2c(S(=O)(=O)Cl)cc(Cl)c(Cl)c2o1` displayed a melting point of 199 to 200 °C. The result for `CC(C)Oc1ccc(C(=O)O)c(Cl)n1` reads 173 to 174 °C; that for `CCCc1nc(C(C)(C)O)c(C(=O)OCC)n1Cc1ccc(-c2ccccc2C#N)cc1`, 92 to 93 °C.

For the compound `NS(=O)(=O)c1c(C(F)F)nsc1OCC(F)(F)F`, the melting point was in the range of 102 to 104 °C. For `CC(C)c1cccc(C(C)C)c1NC(=O)CNC(c1ccccc1)c1ccc(N(C)C)cc1` (stereo not given), the melting point lay in the range of 116 to 117 °C.

On to `CC(=O)OC1CC2C1N(C(C)=O)C(=O)N2C(C)=O` (stereo not given), for which the melting point lay within 148 to 150 °C.

Compound `O=C1OC(c2ccccc2)=NC1=NNc1ccccc1` gave a melting point of 200 to 203 °C.

`CC(=O)Nc1nc2c(Nc3ncnc4cc(Cl)ccc34)cccc2s1` gave a melting point of 230 °C. The compound `O=C(O)c1cccc(COc2ccccc2Cl)c1OCc1ccccc1Cl` came in with a melting point of 96 to 98 °C. The result for `CC(=O)NCc1ccc(CN2CCN(c3ccc(F)cc3)CC2)cc1Cl` reads 141 to 142 °C; that for `CC(=O)C(C#N)c1ccc(F)c(Cl)c1` (stereo not given), 133 to 134 °C; that for `O=C(Nc1nc[nH]n1)c1ccc(-c2ccc3nnn(Cc4ccc5ncccc5c4)c3n2)cc1F`, 265 to 267 °C. Turning to `CC1(C)C2CCC1(C)C(O)(c1ccccc1)C2` (stereo not given), the melting point was 41 to 42 °C. In turn, `COc1c(C(=O)O)nc(N2CCCCS2(=O)=O)n(C)c1=O` registered a melting point of 180 to 181 °C. Then `COc1ccc(-c2nc(-c3ccccc3)ccc2C(=O)O)cc1OC`, with 178 °C; and `Cc1csc(NC(=O)c2nc(C)cc(C#N)c2C)n1`, with 200 °C. For `CCCC12COC(c3ccc(I)cc3)(OC1)SC2`, the melting point was 128 to 132 °C.

On to `C=CCOc1ccc(C[C@H](NC(C)=O)C(=O)OCC)cc1`, for which the melting point lay within 69 to 70 °C.

Consider `Cc1ccc(O)c(CNc2nc(NC[C@@H](C)O)nc3c2ncn3C(C)C)c1`, for which the melting point lay in the range of 160 to 161 °C. Take `COc1cc(C)nc(N=C=S)n1`: the melting point lay in the range of 54 to 55 °C. The result for `CCOC(=O)C1=CC(C(=O)c2cc(Cl)ccc2O)=CN2CCc3c([nH]c4ccccc34)C12C(=O)OCC` (stereo not given) reads 216 °C.

Turning to `CCc1nc2cnc3cc(OCC(=O)N4CCOCC4)ccc3c2n1CCOc1ccccc1`, the melting point lay within 190 to 191 °C. Turning to `CC(=O)OC(C)(C)c1nnc(-c2ccc3occ(-c4cc(F)ccc4F)c3c2)o1`, the melting point fell in the range of 125 to 126 °C. The compound `N#Cc1cccc(-c2nc(N3CCC(O)C3)cc3cccnc23)c1` (stereo not given) gave a melting point of 132 to 133 °C. On to `CCC[C@H]1C(=O)N(S(=O)(=O)c2cccc3ccccc23)[C@H]2CCN(S(=O)(=O)CCCN3CCOCC3)[C@H]12` (relative stereo), for which the melting point was 146 to 148 °C. Take `O=c1cc(CCO)c2cc(F)ccc2n1Cc1cc(Br)c(Br)c(Br)c1`: the melting point lay in the range of 135 to 140 °C. Consider `Nc1nc2[nH]c(CCC#Cc3ccc(C(=O)N[C@@H](CCC(=O)O)C(=O)O)cn3)cc2c(=O)[nH]1`, for which the melting point lay within 178 to 179 °C. Consider `N#CCN1CCC(Nc2nc3ccccc3n2Cc2ccc(CO)o2)CC1`, for which the melting point was found to be 210 °C.

`COC(=O)C(C)c1cccc2c(=O)c3ccccc3ccc12` (stereo not given) came in with a melting point of 37 to 39 °C. `O=S(=O)(CCCCCOc1ccc(C2=C(c3ccccc3)CCCc3cc(OC4CCCCO4)ccc32)cc1)CCCC(F)(F)C(F)(F)F` (stereo not given) displayed a melting point of 107 to 110 °C. As to `Cc1c(CC(=O)O)c2cc(O)ccc2n1C(=O)c1ccccc1`, the melting point was 186 to 188 °C. The result for `CCOCCN(CC1=CCC(N)(Oc2ccccc2)C=C1)C(=O)C(Cl)Cl` (stereo not given) reads 96 to 98 °C.

Turning to `CN[C@@H](CC(C)C)C(=O)N[C@@H](Cc1ccccc1)C(N)=O`, the melting point was 136 to 138 °C. `CC1(C)C(=O)N(CCCl)C(=O)N1CCCl` showed a melting point of 77 to 79 °C. Regarding `Cc1cc(Br)ccc1NC(=O)c1cc([N+](=O)[O-])ccc1NC(=O)CF`, the melting point lay in the range of 247 to 249 °C.

`COC(=O)CCc1cc2cc(Cl)ccc2n1S(=O)(=O)c1cccc2c(C(=O)CN)cccc12` returned a melting point of 206 to 210 °C.

`COc1cc(CC(=O)NCC(=O)N(CCC(=O)O)Cc2ccc(OC)c(OC)c2)ccc1NC(=O)Nc1ccccc1C` yielded a melting point of 172 to 174 °C. Then `Cc1c(Cl)cccc1S(=O)(=O)Nc1ccc2sccc2c1`, with 108 to 109 °C.

Consider `Cc1ccc(CNC(=O)c2cc3c(ccc4cnn(C[C@H](C)N)c43)o2)o1`, for which the melting point lay within 118 to 120 °C. The result for `CCO[C@H]1CCN(C(=O)c2cc(-c3ccccc3)c(=O)n3c2-c2cc(Cl)ccc2CC3)C1` reads 134 to 136 °C; that for `CC1N=C(c2ccccc2F)c2cc(C(C)N)ccc2N(C)C1=O` (stereo not given), 48 to 50 °C; that for `Cc1ccc(S(=O)(=O)N2CCCC2c2ccc(F)c(Cl)c2)cc1` (racemic), 96 °C. `CCOC(=O)OC1=C(c2c(C)cc(C)cc2C)C(=O)N(C)C12CCN(OC)CC2` came in with a melting point of 134 to 136 °C. `CCOCc1nc2c(N)nc(C)c(C)c2n1CCC1CCN(C(=O)N2CCOCC2)CC1` gave a melting point of 158 to 160 °C.

In turn, `CNc1cccc(Cl)n1` came in with a melting point of 63.5 to 64.5 °C.
